Columns and labels:
Format in all cases: biochemical
JAK1 = JAK1 (Homo sapiens (Human), UniProt P23458); experiment: JAK/TYK2 assay (Kinase Glo luminescence), JAK1; conditions: 7.5 nM enzyme, 2 uM ATP, 30 uM IRS-1, 1 hr
Method in brief: (§1)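 Each kinase reaction contains enzyme, substrate mixture and test compound at final 10000–0.51 nM in a 3-fold, 10-point series. Incubation runs 1-2 hours at 25° C before Kinase Glo reagent terminates it and generates the luminescent read-out.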

JAK3 = JAK3 (Homo sapiens (Human), UniProt P52333); experiment: JAK/TYK2 assay (Kinase Glo luminescence), JAK3; conditions: 1.5 nM enzyme, 2 uM ATP, 4 uM pEY, 1 hr
Method in brief: as §1

TYK2 = TYK2 (Homo sapiens (Human), UniProt P29597); experiment: JAK/TYK2 assay (Kinase Glo luminescence), TYK2; conditions: 9 nM enzyme, 2 uM ATP, 30 uM IRS-1, 1 hr
Method in brief: as §1

JAK2 = JAK2 (Homo sapiens (Human), UniProt O60674); experiment: JAK/TYK2 assay (Kinase Glo luminescence), JAK2; conditions: 0.8 nM enzyme, 2 uM ATP, 4 uM pEY, 1 hr
Method in brief: as §1

Sequence of JAK2 (O60674 whole entry, species assumed): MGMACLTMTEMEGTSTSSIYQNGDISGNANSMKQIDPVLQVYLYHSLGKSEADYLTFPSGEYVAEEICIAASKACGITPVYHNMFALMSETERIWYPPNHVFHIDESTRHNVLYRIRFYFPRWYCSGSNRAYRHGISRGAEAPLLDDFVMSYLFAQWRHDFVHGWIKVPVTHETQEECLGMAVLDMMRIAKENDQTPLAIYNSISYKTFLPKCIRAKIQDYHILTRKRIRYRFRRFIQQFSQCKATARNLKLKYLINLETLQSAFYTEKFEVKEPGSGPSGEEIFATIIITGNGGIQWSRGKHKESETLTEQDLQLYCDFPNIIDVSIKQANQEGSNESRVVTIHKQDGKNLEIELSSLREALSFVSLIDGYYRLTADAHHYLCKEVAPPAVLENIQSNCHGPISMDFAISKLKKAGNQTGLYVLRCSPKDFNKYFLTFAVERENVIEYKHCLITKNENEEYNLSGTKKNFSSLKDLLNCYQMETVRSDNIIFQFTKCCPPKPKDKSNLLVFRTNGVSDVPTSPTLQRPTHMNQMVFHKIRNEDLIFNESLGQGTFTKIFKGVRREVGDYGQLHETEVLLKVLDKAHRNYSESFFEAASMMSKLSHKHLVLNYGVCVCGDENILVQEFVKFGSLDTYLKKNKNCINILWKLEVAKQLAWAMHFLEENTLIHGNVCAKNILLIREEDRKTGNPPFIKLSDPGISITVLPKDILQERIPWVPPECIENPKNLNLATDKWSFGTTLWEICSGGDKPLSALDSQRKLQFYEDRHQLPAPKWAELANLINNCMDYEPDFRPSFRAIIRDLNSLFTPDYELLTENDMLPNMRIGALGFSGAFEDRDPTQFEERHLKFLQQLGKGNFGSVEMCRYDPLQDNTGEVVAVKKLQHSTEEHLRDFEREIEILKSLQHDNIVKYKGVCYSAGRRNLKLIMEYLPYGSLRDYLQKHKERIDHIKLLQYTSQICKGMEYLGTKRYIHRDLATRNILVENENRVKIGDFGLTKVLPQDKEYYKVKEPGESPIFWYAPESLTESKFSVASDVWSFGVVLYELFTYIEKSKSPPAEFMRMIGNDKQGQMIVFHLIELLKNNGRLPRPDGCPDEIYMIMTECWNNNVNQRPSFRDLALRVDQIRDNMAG
Sequence of JAK3 (P52333 whole entry, species assumed): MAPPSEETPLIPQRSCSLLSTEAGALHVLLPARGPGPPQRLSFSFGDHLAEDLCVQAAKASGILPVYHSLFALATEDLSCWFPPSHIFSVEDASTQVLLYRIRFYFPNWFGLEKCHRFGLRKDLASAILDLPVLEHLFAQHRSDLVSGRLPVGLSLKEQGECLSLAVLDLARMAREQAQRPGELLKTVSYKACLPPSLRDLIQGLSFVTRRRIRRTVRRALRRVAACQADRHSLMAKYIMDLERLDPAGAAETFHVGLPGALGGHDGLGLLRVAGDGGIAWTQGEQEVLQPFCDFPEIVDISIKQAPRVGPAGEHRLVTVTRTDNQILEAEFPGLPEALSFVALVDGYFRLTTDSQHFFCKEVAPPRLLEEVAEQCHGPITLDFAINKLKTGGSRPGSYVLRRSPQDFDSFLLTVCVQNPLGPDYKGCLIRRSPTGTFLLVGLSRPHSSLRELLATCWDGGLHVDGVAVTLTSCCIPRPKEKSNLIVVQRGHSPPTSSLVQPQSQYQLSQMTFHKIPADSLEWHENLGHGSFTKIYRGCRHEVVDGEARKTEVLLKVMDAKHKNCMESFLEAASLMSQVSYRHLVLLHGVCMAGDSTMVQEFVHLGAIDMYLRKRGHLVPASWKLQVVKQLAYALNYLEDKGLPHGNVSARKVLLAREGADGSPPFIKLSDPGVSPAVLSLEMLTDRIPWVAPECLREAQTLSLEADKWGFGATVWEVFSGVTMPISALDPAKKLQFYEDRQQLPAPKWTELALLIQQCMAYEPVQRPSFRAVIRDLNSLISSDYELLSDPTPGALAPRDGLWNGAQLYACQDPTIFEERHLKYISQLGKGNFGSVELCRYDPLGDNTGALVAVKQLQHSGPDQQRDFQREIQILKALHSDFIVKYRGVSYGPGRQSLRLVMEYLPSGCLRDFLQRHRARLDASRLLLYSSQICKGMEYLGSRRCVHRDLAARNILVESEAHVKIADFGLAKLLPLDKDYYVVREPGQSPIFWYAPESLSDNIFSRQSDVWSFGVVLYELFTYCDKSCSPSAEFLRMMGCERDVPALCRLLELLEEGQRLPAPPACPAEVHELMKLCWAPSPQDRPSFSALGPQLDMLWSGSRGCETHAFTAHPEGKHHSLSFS
Sequence of TYK2 (P29597 whole entry, species assumed): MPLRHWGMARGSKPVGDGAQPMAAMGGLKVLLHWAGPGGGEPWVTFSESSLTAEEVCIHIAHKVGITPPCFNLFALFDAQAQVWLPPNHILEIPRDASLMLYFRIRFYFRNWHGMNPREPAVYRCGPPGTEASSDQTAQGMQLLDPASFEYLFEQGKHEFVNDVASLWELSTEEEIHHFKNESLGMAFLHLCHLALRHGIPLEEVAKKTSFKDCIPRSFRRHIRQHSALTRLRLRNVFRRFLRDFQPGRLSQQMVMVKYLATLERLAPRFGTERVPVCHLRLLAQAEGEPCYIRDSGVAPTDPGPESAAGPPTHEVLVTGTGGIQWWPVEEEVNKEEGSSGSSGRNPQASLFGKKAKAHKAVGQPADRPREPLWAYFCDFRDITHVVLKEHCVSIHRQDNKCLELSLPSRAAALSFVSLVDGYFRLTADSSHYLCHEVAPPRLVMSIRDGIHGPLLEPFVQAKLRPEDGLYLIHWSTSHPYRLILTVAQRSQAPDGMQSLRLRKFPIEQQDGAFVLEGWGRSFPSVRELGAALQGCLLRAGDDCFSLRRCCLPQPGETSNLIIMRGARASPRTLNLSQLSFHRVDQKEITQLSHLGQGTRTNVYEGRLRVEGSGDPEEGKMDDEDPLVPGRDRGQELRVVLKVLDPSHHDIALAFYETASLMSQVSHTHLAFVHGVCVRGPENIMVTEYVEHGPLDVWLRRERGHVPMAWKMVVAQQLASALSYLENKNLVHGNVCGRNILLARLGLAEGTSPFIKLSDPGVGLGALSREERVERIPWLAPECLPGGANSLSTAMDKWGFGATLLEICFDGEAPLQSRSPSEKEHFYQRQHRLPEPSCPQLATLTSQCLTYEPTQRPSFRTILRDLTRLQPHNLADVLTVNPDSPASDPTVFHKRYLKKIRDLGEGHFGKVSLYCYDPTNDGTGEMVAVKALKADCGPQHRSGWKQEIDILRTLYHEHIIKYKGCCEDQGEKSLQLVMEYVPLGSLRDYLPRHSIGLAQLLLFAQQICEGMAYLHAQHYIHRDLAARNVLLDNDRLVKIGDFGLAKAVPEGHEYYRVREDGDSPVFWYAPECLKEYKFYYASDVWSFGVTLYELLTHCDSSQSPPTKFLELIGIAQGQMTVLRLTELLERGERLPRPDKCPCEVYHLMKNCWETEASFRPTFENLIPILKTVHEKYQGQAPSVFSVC
Sequence of JAK1 (P23458 whole entry, species assumed): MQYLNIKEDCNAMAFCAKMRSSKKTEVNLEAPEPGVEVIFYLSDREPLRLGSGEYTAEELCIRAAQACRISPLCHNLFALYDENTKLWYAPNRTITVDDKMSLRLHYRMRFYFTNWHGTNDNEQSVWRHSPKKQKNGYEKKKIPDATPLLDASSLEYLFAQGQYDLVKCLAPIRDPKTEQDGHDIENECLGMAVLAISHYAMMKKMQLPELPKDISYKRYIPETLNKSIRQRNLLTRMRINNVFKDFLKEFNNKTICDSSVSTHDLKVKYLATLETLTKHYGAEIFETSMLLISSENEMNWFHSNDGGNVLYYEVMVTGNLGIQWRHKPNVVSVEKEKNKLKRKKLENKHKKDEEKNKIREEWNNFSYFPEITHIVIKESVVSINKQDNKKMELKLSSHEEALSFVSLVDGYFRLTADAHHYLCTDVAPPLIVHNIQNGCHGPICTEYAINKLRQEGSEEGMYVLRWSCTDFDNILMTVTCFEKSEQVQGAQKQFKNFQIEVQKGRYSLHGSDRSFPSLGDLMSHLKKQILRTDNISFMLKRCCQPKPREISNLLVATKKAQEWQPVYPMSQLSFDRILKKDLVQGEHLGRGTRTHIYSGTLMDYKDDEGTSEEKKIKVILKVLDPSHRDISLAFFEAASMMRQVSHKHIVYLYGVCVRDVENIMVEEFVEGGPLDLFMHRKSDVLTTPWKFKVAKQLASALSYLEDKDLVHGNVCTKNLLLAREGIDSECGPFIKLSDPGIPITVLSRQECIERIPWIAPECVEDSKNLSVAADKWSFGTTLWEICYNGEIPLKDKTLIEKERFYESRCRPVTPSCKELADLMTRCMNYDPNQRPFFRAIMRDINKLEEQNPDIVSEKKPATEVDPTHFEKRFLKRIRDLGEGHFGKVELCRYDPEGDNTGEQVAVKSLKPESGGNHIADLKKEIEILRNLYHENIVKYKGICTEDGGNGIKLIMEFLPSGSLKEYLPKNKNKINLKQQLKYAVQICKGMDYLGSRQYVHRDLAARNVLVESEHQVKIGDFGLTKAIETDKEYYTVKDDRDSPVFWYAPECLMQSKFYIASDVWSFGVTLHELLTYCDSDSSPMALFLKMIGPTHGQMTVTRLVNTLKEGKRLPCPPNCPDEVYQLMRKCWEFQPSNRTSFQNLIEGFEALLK

SMILES	IC50 (JAK1) [nM]	IC50 (JAK3) [nM]	IC50 (TYK2) [nM]	IC50 (JAK2) [nM]
CCOC(=O)Cn1cc(Nc2ncc3ccn(C[C@@H](CC)C(C)C)c3n2)cn1 [Compound 135, ethyl (S)-2-(4-((7-(2-ethyl-3-methylbutyl)-7H-pyrrolo[2,3-d]pyrimidin-2-yl)amino)-1H-pyrazol-1-yl)acetate]	< 100	< 100	< 100	< 100
CC[C@H](Cn1ccc2cnc(Nc3cnn(C(CCO)C(=O)O)c3)nc21)C(C)C (stereo partly drawn) [Compound 136, 2-(4-((7-((S)-2-ethyl-3-methylbutyl)-7H-pyrrolo[2,3-d]pyrimidin-2-yl)amino)-1H-pyrazol-1-yl)-4-hydroxybutanoic acid]	< 100	< 100	< 100	< 100
CCC(Cn1ccc2cnc(Nc3cnn(C(=O)OC(C)(C)C)c3)nc21)C(C)C (centres unmarked) [Compound 137, tert-butyl 4-((7-(2-ethyl-3-methylbutyl)-7H-pyrrolo[2,3-d]pyrimidin-2-yl)amino)-1H-pyrazole-1-carboxylate]	< 100	< 100	< 100	< 100
CC[C@H](Cn1ccc2cnc(Nc3cnn(CC(=O)OCC4COC4)c3)nc21)C(C)C [Compound 141, oxetan-3-ylmethyl (S)-2-(4-((7-(2-ethyl-3-methylbutyl)-7H-pyrrolo[2,3-d]pyrimidin-2-yl)amino)-1H-pyrazol-1-yl)acetate]	< 100	< 100	< 100	< 100
CCC(CC)Cn1ccc2cnc(Nc3cnn(C4CCOC4=O)c3)nc21 (centres unmarked) [Compound 142, 3-(4-((7-(2-ethylbutyl)-7H-pyrrolo[2,3-d]pyrimidin-2-yl)amino)-1H-pyrazol-1-yl)dihydrofuran-2(3H)-one]	< 100	< 100	< 100	< 100
CC[C@H](Cn1ccc2cnc(Nc3cnn(C4CC(C)(C)OC4=O)c3)nc21)C(C)C (stereo partly drawn) [Compound 144, 3-(4-((7-((S)-2-ethyl-3-methylbutyl)-7H-pyrrolo[2,3-d]pyrimidin-2-yl)amino)-1H-pyrazol-1-yl)-5,5-dimethyldihydrofuran-2(3H)-one]	< 100	< 100	< 100	< 100
CC[C@H](Cn1ccc2cnc(Nc3cnn(C(CC(C)(C)O)C(=O)O)c3)nc21)C(C)C (stereo partly drawn) [Compound 147, 2-(4-((7-((S)-2-ethyl-3-methylbutyl)-7H-pyrrolo[2,3-d]pyrimidin-2-yl)amino)-1H-pyrazol-1-yl)-4-hydroxy-4-methylpentanoic acid]	< 100	< 100	< 100	< 100

Other lines, results leading:

IC50 (JAK1) [nM]	IC50 (JAK3) [nM]	IC50 (TYK2) [nM]	IC50 (JAK2) [nM]	SMILES
< 100	< 100	< 100	< 100	CC[C@H](Cn1ccc2cnc(Nc3cnn(CC(=O)O[C@H]4CCN(C)C4)c3)nc21)C(C)C [Compound 138, (S)-1-methylpyrrolidin-3-yl 2-(4-((7-((S)-2-ethyl-3-methylbutyl)-7H-pyrrolo[2,3-d]pyrimidin-2-yl)amino)-1H-pyrazol-1-yl)acetate]
< 100	< 100	< 100	< 100	CC[C@H](Cn1ccc2cnc(Nc3cnn(CC(=O)O[C@@H]4CCN(C)C4)c3)nc21)C(C)C [Compound 139, (R)-1-methylpyrrolidin-3-yl 2-(4-((7-((S)-2-ethyl-3-methylbutyl)-7H-pyrrolo[2,3-d]pyrimidin-2-yl)amino)-1H-pyrazol-1-yl)acetate]
< 100	< 100	< 100	< 100	CC[C@H](Cn1ccc2cnc(Nc3cnn(CC(=O)OC4COC4)c3)nc21)C(C)C [Compound 140, oxetan-3-yl (S)-2-(4-((7-(2-ethyl-3-methylbutyl)-7H-pyrrolo[2,3-d]pyrimidin-2-yl)amino)-1H-pyrazol-1-yl)acetate]
< 100	< 100	< 100	< 100	CN1CC[C@@H](OC(=O)Cn2cc(Nc3ncc4ccn(C[C@H]5CC[C@H](O)CC5)c4n3)cn2)C1 [Compound 146, (R)-1-methylpyrrolidin-3-yl 2-(4-((7-(((1r,4r)-4-hydroxycyclohexyl)methyl)-7H-pyrrolo[2,3-d]pyrimidin-2-yl)amino)-1H-pyrazol-1-yl)acetate]

Source: patent publication US11136329B2, “JAK inhibitors” (Vimalan Biosciences, Inc., priority 2019, dated 2021)
